Patent US10144726B2, “Modulators of the p70S6 kinase for use in the treatment of brain disorders and triple-negative breast cancer” (SENTINEL ONCOLOGY LIMITED, priority 2015, dated 2018)

Columns and labels:
p70S6K (h) = p70S6K (h) (Homo sapiens, UniProt P23443); test: Determination of p70S6 inhibitory activity (radiometric kinase assay); type: biochemical; settings: read-out: (a) p70S6K1 IC50
Procedure: The ability of compounds of the invention to inhibit P70S6 kinase was determined using the protocol below.
20 mM MOPS, 1 mM EDTA, 0.01% Brij-35, 5% Glycerol, 0.1% b-mercaptoethanol, 1 mg/mL BSA
In a final reaction volume of 25 μL, p70S6K (h) (5-10 mU) is incubated with 8 mM MOPS pH 7.0, 0.2 mM EDTA, 100 μM KKRNRTLTV, 10 mM Mg acetate and [γ-33P-ATP] (specific activity approx. 500 cpm/pmol, concentration as required). The reaction is initiated by the addition of the MgATP mix. After incubation for 40 minutes at room temperature, the reaction is stopped by the addition of 5 μL of a 3% phosphoric acid solution. 10 μL of the reaction mixture is then spotted onto a P30 filtermat and washed three times for 5 minutes in 75 mM phosphoric acid and once in methanol prior to drying and scintillation counting.

MCF-7 cells = test: MCF-7 proliferation assay (Alamar blue, 72 h); type: cell-based; settings: Homo sapiens, MCF7, 72 h; read-out: (c) MCF-7 proliferation IC50
Procedure: The following assay was used to determine the ability of test compounds to inhibit cell growth.
The following protocol was used: • 1) MCF-7 cells were seeded in 96-well plates at 5000 cells per well and allowed to adhere overnight prior to addition of compound or vehicle control. • 2) Test compounds were prepared from 10 mM DMSO stocks to give a final concentration range of 100 μM, 30 μM, 10 μM, 3 μM, 1 μM, 0.3 μM, 0.1 μM, 0.03 μM, 0.01 μM and vehicle control. The DMSO content was constant at 1%. • 3) Test compounds were incubated with the cells for 72 h at 37° C. 5% CO2 in a humidified atmosphere. • 4) Alamar blue 10% (v/v) was then added and incubated for a further 6 h, and fluorescent product detected using the BMG FLUOstar plate reader. • 5) Data were analysed using a 4-parameter logistic equation in GraphPad Prism.

MDA-MB-231 cells = test: Tumour initiation and metastasis in an in vivo model of triple negative breast cancer (MDA-MB-231, mammary fat pad); parameters: species or system female athymic nude mice
Source text: In order to test the efficacy of an inhibitor of S6K1 in an in vivo model of tumour initiation and metastasis, the following experiment was established:
A total of 30 female athymic nude mice (Hsd:Athymic Nude-Foxn1^nu) were purchased from Harlan (UK) and acclimatised for 7 days prior to study commencement. Animals were housed in IVC cages (5 per cage) with individual mice identified by ear punch. All animals were allowed free access to a standard certified commercial diet and sanitised water during the study. The holding room was maintained under standard conditions: 20-24° C., 40-70% humidity and a 12 h light/dark cycle.
On day −1, animals were randomly assigned to treatment groups as indicated in the table below, and drug treatment commenced. On day 0, MDA-MB-231 cells (1×10^6 in matrigel) were implanted into the second mammary fat pad.
The dosing route was PO and the formulation was as follows: 10% DMSO/90% hydroxypropyl-β-cyclodextrin (20% w/v aqueous)
(1) Time to palpation of tumour (latency) (2) tumour volume (3) tumour and organ weights as a measure of metastasis (4) visual appearance of metastatic nodules in the lungs

[1] = test system: audiogenic seizures in FXS (Fmr1 KO) mice; test: Audiogenic seizure assay, in vivo model of Fragile X Syndrome; parameters: species or system FVB background; settings: 25 mg/kg QD × 7 PO
Source text: Seizures occur in conjunction with FXS and autism in up to one-quarter of children with these disorders (Berry-Kravis E (2002) Epilepsy in fragile X syndrome. Dev. Med. Child Neurol. 44(11):724-728). […] The audiogenic seizure assay (AGS) is a well documented mouse model of FXS (Audiogenic seizures susceptibility in transgenic mice with fragile X syndrome, Epilepsia. 2000 January; 41(1):19-23). In such a model it is possible to dose compounds to observe effects on susceptibility of the mice to audiogenic seizures. The following AGS experiment was set up to test the efficacy of compounds of this application:
Strain of FXS Mouse Used: FVB Background
Vehicle used: 10% DMSO/90% hydroxypropyl-β-cyclodextrin (20% w/v aqueous)
Animals were assessed in AGS following 7 consecutive days of dosing.
The experimental chamber consisted of a plastic cage of dimensions 25×25×47 cm in which a doorbell (Electrical bell Heath Zenith, model 172C-A) had been mounted on the cage roof.
Mice were taken from their housing room one by one and transferred into the experimental chamber and allowed to explore the novel environment (basal noise ˜65 dB) for a period of 30 seconds after which point the bell was rung (124 dB).
The resulting motor responses were classified using a scale modified from the one originally described by Jobe et al. (1973): no response (NR: pause or continuous exploration), wild running (WR), clonic seizure (CS), tonic seizure (TS), respiratory arrest and/or death (RA). In order to define the intensity of the behavioral response a seizure severity score was used (SSS) (Musumeci et al., 2000), consisting of a score assigned to each animal depending on its behavioral response (NR=0, WR=1, CS=2, TS=3, RA=4). To determine the SSS for a treatment group the scores of the individual mice are summed. The motor response rate is defined as the percentage of animals per group responding to the stimulus.

[2] = 250 mg/kg p.o. QD 21 days, vs vehicle

Chain of p70S6K (h) (P23443 whole entry): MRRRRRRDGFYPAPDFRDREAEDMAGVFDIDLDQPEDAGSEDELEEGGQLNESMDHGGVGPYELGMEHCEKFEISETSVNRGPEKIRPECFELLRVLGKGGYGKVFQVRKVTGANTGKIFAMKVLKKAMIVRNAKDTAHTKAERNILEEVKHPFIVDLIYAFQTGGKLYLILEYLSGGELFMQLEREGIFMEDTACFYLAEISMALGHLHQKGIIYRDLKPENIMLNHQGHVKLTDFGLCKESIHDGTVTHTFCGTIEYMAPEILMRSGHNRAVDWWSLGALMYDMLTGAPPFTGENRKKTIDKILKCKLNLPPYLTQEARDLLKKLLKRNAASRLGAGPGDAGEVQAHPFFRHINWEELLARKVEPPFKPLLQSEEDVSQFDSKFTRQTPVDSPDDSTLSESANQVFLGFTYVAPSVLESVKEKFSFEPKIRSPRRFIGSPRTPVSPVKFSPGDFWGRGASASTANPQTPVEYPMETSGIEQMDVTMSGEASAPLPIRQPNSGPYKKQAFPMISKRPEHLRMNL

C[C@@H](Nc1cnc2cc(-c3cn[nH]c3)ccc2n1)c1cccc(Cl)c1 [Example 15]
IC50 (p70S6K (h)): 0.006 µM
IC50 (MCF-7 cells): 12 µM
Mean no. of nodules per lung (MDA-MB-231 cells; 250 mg/kg QD × 21, at necroscopy): 1
Lung weight at day 21 (MDA-MB-231 cells; [2]): reduction in weight of lungs
Rate of tumour incidence (MDA-MB-231 cells; [2]): decreases
Time to palpation of tumour (latency) (MDA-MB-231 cells; [2]): delays
Tumour weight at day 21 (MDA-MB-231 cells; [2]): weighed significantly less
Tumour volume (MDA-MB-231 cells; 250 mg/kg p.o. QD 21 days, vs vehicle, p<0.05): reduction in volume of tumours which is statistically significant over vehicle
CS (clonic seizure), number of animals [1]: 0
NR (no response), number of animals [1]: 6
RA (respiratory arrest and/or death), number of animals [1]: 0
SSS (seizure severity score, summed for the group) [1]: 2
TS (tonic seizure), number of animals [1]: 0
WR (wild running), number of animals [1]: 2
Incidence of audiogenic seizures and severity of response ([1]; vs vehicle, p<0.01 by Fisher's test): reduced
